Test results as given in patent EP4506003A1, “HALOGEN DERIVATIVES OF (4´,5´- METHYLENEDIOXYPHENYL)-6,7-DIMETHOXY-1,2,3,4-TETRAHYDROISOQUINOLINE FOR USE IN THE TREATMENT OF LEUKEMIA” (S.Yu Yunusov Institute of Chemistry of Plant Substances of …, priority 2023, dated 2025).
Marks after values point to notes of the source that are not given here.

Experiments:
cervical carcinoma cells = settings: read-out: CE50 dose; cited from earlier work
[1] = system: blood of patients with AML; assay: Hemogram of blood of patients with AML after exposure (Example 12, Table 9); type: cell-based
Protocol: (§4) The drugs Cytosar (Alexan) (Ebewe Pharma, Austria) and doxorubicin (Naprod, Mumbai, India) recommended by WHO for the treatment of the above oncohematological diseases were used as comparison drugs.
(§5) 5 ml of venous blood from sick and conditionally healthy individuals were collected into Vacutainer tubes with the addition of EDTA (Himedia, India).
(§6) The resulting blood was divided into aliquots of 1 ml and 10 µl (10 µg/ml) of the studied drugs (cytosar, doxorubicin, F1 and F2) were added to each tube.

fibroblasts = assay: MTT cytotoxicity on fibroblasts; type: cell-based; settings: Fibroblast, 24 hours
Protocol: (§1) The cytotoxic properties of the compounds were determined in vitro using the MTT method in 96-well plates (Costar, USA). […] Rat liver hepatocytes were obtained according to the method, human blood mononuclear cells - according to [23]. Fibroblast cells were obtained according to the method of [24] with some modifications. Cell cultures were subcultured into 96-well plates according to the method of [21] by adding 100 μl of nutrient medium. The CCRF-CEM suspension culture was poured into a tube, centrifuged at 800 rpm for 10 minutes, and the supernatant was discarded. […] Data obtained in 3 independent experiments were expressed as the mean value for each concentration ± standard error of the mean, relative to the control values (cells without test compounds). The cytotoxic effect of each of the studied compounds was compared with the effect of the cytostatic Cisplatin-Naprod (India), containing cisplatin as an active component. Table 1: IC50 μM value for test compounds

[2] = system: blood of patients with AML; assay: Hemogram of blood of patients with AML after exposure (Example 13, Table 10; also OMML); type: cell-based
Protocol: as §4, §5, §6

[3] = system: blood of patients with ALL; assay: Hemogram of blood of patients with ALL after exposure; type: cell-based
Protocol: (§7) The effect of compounds F1 and F2 was studied on biological material (blood) of patients with hematological malignancies (leukemia), as well as for individual nosologies, in particular, patients with leukemia (combined group) (n=224), T-ALL (n=84), B-ALL (n=100), ALL (n=100), AML (n= 98), AML (n=94) and AML (n= 98) were studied. A total of 798 blood samples from patients with leukemia were examined.
as §5, §6

[4] = system: CCRF-CEM (CCL-119) (T-lymphoblastic leukemia); assay: MTT cytotoxicity on CCRF-CEM cells; type: cell-based; settings: Homo sapiens, 24 hours
Protocol: as §1

Rat liver hepatocytes = assay: MTT cytotoxicity on hepatocytes; type: cell-based; settings: Rattus norvegicus, Hepatocyte, 24 hours
Protocol: as §1

[5] = system: blood of patients with B-ALL; assay: Hemogram of blood of patients with B-ALL after exposure; type: cell-based
Protocol: A total of 798 blood samples from patients with leukemia were examined.
as §4, §5, §6

[6] = system: blood of patients with T-ALL; assay: Hemogram of blood of patients with T-ALL after exposure; type: cell-based
Text: as §7, §4, §5, §6

[7] = system: blood of patients with AML; assay: Hemogram of blood of patients with AML after exposure (Example 14, Table 11); type: cell-based; settings: AML (Table 11); 10 µg/ml; 3 hours, 37.0°C
Text: as §7, §4, §5, §6

[8] = system: blood of patients with leukemia (combined group); assay: Hemogram of blood of patients with leukemia (combined group) after exposure; type: cell-based
Text: as §7, §4, §5, §6

[9] = Acute toxicity study (LD50); settings: mouse, in vivo, ip
Protocol: (§2) We studied the acute toxicity of compound F1 in vivo. The experiments were carried out on outbred white mice of both sexes weighing 18-20 g (24 pcs.). The animals were divided into groups of 12 mice each. The compound was dissolved in DMSO and then adjusted to the desired concentration with 0.9% NaCl solution and administered intraperitoneally and subcutaneously in a dose range from 5.0 to 200.0 mg/kg. […] The maximum relative error of the applied dose was no more than 5%.
(§3) We studied the acute toxicity of compound F2 in vivo. The experiments were carried out on outbred white mice of both sexes weighing 18-20 g (24 pcs.). The animals were divided into groups of 12 mice each. The compound was dissolved in DMSO and then brought to the desired concentration with 0.9% NaCl solution and administered intraperitoneally and subcutaneously to animals in a dose range from 5.0 to 200.0 mg/kg. […] The maximum relative error of the administered dose was no more than 5%.

outbred white mice = assay: Acute toxicity study (LD50)
Protocol: as §2, §3

lung cancer H460 = settings: cited from earlier work
[10] = AML (Table 9), 10 µg/ml, 3 hours, 37.0°C
[11] = AML (Example 13), compared with doxorubicin
[12] = AML (Table 10), 10 µg/ml, 3 hours, 37.0°C

Q: Which EC50 (cervical carcinoma cells) does the source give for `CS(=O)(=O)N1CCC(Nc2n[nH]c3c2nc(-c2c(F)cccc2F)c2cc(C(N)=O)ccc23)CC1` [5-(2,6-difluorophenyl)-3-{[1-(methylsulfonyl)piperidin-4-yl]amino}-1H-pyrazolo[4,3-c]isoquinoline-7-carboxamide] here?
A: 0.259 µM

Q: For `COc1cc2c(cc1OC)C(c1cc3c(cc1Cl)OCO3)NCC2` (stereo not shown) [Compound F2, 1-(2'-chloro-4',5'-methylenedioxyphenyl)-6,7-dimethoxy-1,2,3,4-tetrahydroisoquinoline], which “decrease in the percentage of blasts” value ([1]; AML (Example 12)) is on record?
A: 1.2 times

Q: What about the “increase in the level of destroyed cells” value ([1]; AML (Example 12)) of the same molecule?
A: 4.0 times

Q: And the “increase in the proportion of mature differentiated neutrophils” value ([1]; AML (Example 12))?
A: 2.0 times

Q: What about the “Band (s/n) neutrophils” value [1, 10] of the same molecule?
A: 0,9±0,4%

Q: What about the Blasts [1, 10] of the same molecule?
A: 65,6±2,4 %

Q: What about the Destroyed cells [1, 10] of the same molecule?
A: 8,2±1,1%

Q: And the Eosinophils [1, 10]?
A: 0,8±0,5%

Q: And the Lymphocytes [1, 10]?
A: 11,5±1,8%

Q: What about the Monocytes [1, 10] of the same molecule?
A: 4,4±0,9%

Q: And the Myelocytes [1, 10]?
A: 1,3±0,7%

Q: What about the Promyelocytes [1, 10] of the same molecule?
A: 0,4±0,2%

Q: And the “Segmented (s/i) neutrophils” value [1, 10]?
A: 7,0±1,1 %

Q: And the IC50 (fibroblasts)?
A: > 100 µM

Q: And the “decrease in the percentage of myelocytes” value ([2]; AML (Example 13))?
A: 2.1 times

Q: What about the “decrease in the proportion of blasts” value ([2]; AML (Example 13)) of the same molecule?
A: 11.7%

Q: What about the “increase in the proportion of destroyed cells” value ([2]; AML (Example 13)) of the same molecule?
A: 2.6 times

Q: And the “increase in the proportion of neutrophils” value ([2]; AML (Example 13))?
A: 2.3 times

Q: And the “proportion of destroyed cells higher” value ([2]; AML (Example 13), compared with Cytosar)?
A: 2.1 times

Q: And the “percentage of lymphocytes lower” value [2, 11]?
A: 1.9 times

Q: And the “percentage of neutrophils lower” value [2, 11]?
A: 1.7 times

Q: And the “percentage of myelocytes lower” value ([2]; AML (Example 13), relative to cytosar)?
A: 5.0 times

Q: What about the “Band (s/n) neutrophils” value [2, 12] of the same molecule?
A: 2,9±0,4%

Q: And the Blasts [2, 12]?
A: 51,9±2,2%

Q: What about the Destroyed cells [2, 12] of the same molecule?
A: 16,6±1,6*^ %

Q: And the Eosinophils [2, 12]?
A: 0,5±0,2%

Q: What about the Lymphocytes [2, 12] of the same molecule?
A: 3,2±0,8 %

Q: What about the Monocytes [2, 12] of the same molecule?
A: 3,2±0,4 %

Q: What about the Myelocytes [2, 12] of the same molecule?
A: 3,2±0,5 %

Q: What about the Promyelocytes [2, 12] of the same molecule?
A: 0,0±0,0%

Q: What about the “Segmented (s/i) neutrophils” value [2, 12] of the same molecule?
A: 18,6±1,7 %

Q: What about the “Band (s/n) neutrophils” value ([3]; 10 µg/ml, 3 hours, 37.0°C) of the same molecule?
A: 0,7±0,2%

Q: What about the Blasts ([3]; 10 µg/ml, 3 hours, 37.0°C) of the same molecule?
A: 67,9±1,6*^ %

Q: And the Destroyed cells ([3]; 10 µg/ml, 3 hours, 37.0°C)?
A: 13,2±1,4*^ # %

Q: And the Eosinophils ([3]; 10 µg/ml, 3 hours, 37.0°C)?
A: 0,2±0,1%

Q: What about the Lymphocytes ([3]; 10 µg/ml, 3 hours, 37.0°C) of the same molecule?
A: 13,4±1,3%

Q: What about the Monocytes ([3]; 10 µg/ml, 3 hours, 37.0°C) of the same molecule?
A: 1,1±0,3%

Q: And the Myelocytes ([3]; 10 µg/ml, 3 hours, 37.0°C)?
A: 0,0±0,0%

Q: And the Promyelocytes ([3]; 10 µg/ml, 3 hours, 37.0°C)?
A: 0,0±0,0%

Q: And the “Segmented (s/i) neutrophils” value ([3]; 10 µg/ml, 3 hours, 37.0°C)?
A: 3,7±0,7 %

Q: And the “percentage of destroyed cells higher” value ([3]; compared to cytosar)?
A: 2.8 times

Q: And the “difference in the level of blast cells” value ([3]; compared with cytosar)?
A: 1.16 times

Q: What about the “increase in the proportion of destroyed cells” value ([3]; in comparison with doxorubicin) of the same molecule?
A: 2.75 times

Q: And the IC50 [4]?
A: 21 µM

Q: And the IC50 (Rat liver hepatocytes)?
A: > 100 µM

Q: And the “decrease in the content of blasts” value [5]?
A: 1.27 times

Q: What about the “increase in the proportion of destroyed cells” value [5] of the same molecule?
A: 4.9 times

Q: What about the “Band (s/n) neutrophils” value ([5]; 10 µg/ml, 3 hours, 37.0°C) of the same molecule?
A: 1,7±0,4%

Q: What about the Blasts ([5]; 10 µg/ml, 3 hours, 37.0°C) of the same molecule?
A: 53,9±2,6 %

Q: And the Destroyed cells ([5]; 10 µg/ml, 3 hours, 37.0°C)?
A: 15,2±1,8*^ %

Q: What about the Eosinophils ([5]; 10 µg/ml, 3 hours, 37.0°C) of the same molecule?
A: 0,0±0,0%

Q: What about the Lymphocytes ([5]; 10 µg/ml, 3 hours, 37.0°C) of the same molecule?
A: 14,6±2,0%

Q: And the Monocytes ([5]; 10 µg/ml, 3 hours, 37.0°C)?
A: 2,8±0,9%

Q: What about the Myelocytes ([5]; 10 µg/ml, 3 hours, 37.0°C) of the same molecule?
A: 0,8±0,2%

Q: And the Promyelocytes ([5]; 10 µg/ml, 3 hours, 37.0°C)?
A: 0,0±0,0%

Q: What about the “Segmented (s/i) neutrophils” value ([5]; 10 µg/ml, 3 hours, 37.0°C) of the same molecule?
A: 11,1±2,0 %

Q: And the “Band (s/n) neutrophils” value ([6]; 10 µg/ml, 3 hours, 37.0°C)?
A: 0,8±0,2%

Q: And the Blasts ([6]; 10 µg/ml, 3 hours, 37.0°C)?
A: 68,2±2,2 %

Q: And the Destroyed cells ([6]; 10 µg/ml, 3 hours, 37.0°C)?
A: 16,1±1,3 A %

Q: What about the Eosinophils ([6]; 10 µg/ml, 3 hours, 37.0°C) of the same molecule?
A: 0,0±0,0%

Q: And the Lymphocytes ([6]; 10 µg/ml, 3 hours, 37.0°C)?
A: 6,7±0,6*^ # %

Q: What about the Monocytes ([6]; 10 µg/ml, 3 hours, 37.0°C) of the same molecule?
A: 1,2±0,2*^ %

Q: What about the Myelocytes ([6]; 10 µg/ml, 3 hours, 37.0°C) of the same molecule?
A: 0,0±0,0%

Q: And the Promyelocytes ([6]; 10 µg/ml, 3 hours, 37.0°C)?
A: 0,0±0,000%

Q: What about the “Segmented (s/i) neutrophils” value ([6]; 10 µg/ml, 3 hours, 37.0°C) of the same molecule?
A: 7,0±1,0*^ %

Q: And the “increase in the percentage of destroyed cells” value ([6]; comparator not stated)?
A: 1.8 times

Q: What about the decrease in lymphocytes ([6]; compared with doxorubicin) of the same molecule?
A: 1.7 times

Q: What about the decrease in monocytes ([6]; compared with doxorubicin) of the same molecule?
A: 1.9 times

Q: What about the “increase in the proportion of mature and differentiated neutrophils” value ([6]; comparison with the cytosar group) of the same molecule?
A: 2.3 times

Q: What about the “Band (s/n) neutrophils” value [7] of the same molecule?
A: 1,2±0,3%

Q: And the Blasts [7]?
A: 59,1±3,3 %

Q: And the Destroyed cells [7]?
A: 19,3±1,7 %

Q: And the Eosinophils [7]?
A: 0,5±0,2%

Q: And the Lymphocytes [7]?
A: 8,2±1,1%

Q: What about the Monocytes [7] of the same molecule?
A: 1,8±0,3%

Q: And the Myelocytes [7]?
A: 0,4±0,1%

Q: And the Promyelocytes [7]?
A: 0,0±0,0%

Q: And the “Segmented (s/i) neutrophils” value [7]?
A: 9,6±2,5%

Q: What about the “Band (s/n) neutrophils” value ([8]; 10 µg/ml, 3 hours, 37.0°C) of the same molecule?
A: 1,6±0,2 %

Q: What about the Blasts ([8]; 10 µg/ml, 3 hours, 37.0°C) of the same molecule?
A: 65,2±2,8 %

Q: What about the Destroyed cells ([8]; 10 µg/ml, 3 hours, 37.0°C) of the same molecule?
A: 12,9±1,8 %

Q: What about the Eosinophils ([8]; 10 µg/ml, 3 hours, 37.0°C) of the same molecule?
A: 1,6±0,3 %

Q: What about the Lymphocytes ([8]; 10 µg/ml, 3 hours, 37.0°C) of the same molecule?
A: 12,3±1,2%

Q: What about the Monocytes ([8]; 10 µg/ml, 3 hours, 37.0°C) of the same molecule?
A: 4,7±0,7 %

Q: What about the Myelocytes ([8]; 10 µg/ml, 3 hours, 37.0°C) of the same molecule?
A: 2,5±0,6 %

Q: What about the Promyelocytes ([8]; 10 µg/ml, 3 hours, 37.0°C) of the same molecule?
A: 3,8±2,1%

Q: And the “Segmented (s/i) neutrophils” value ([8]; 10 µg/ml, 3 hours, 37.0°C)?
A: 5,5±0,9%

Q: What about the “increase in the level of destroyed cells” value ([8]; compared to the control group) of the same molecule?
A: 2.3 fold

Q: What about the “decrease in the content of blasts” value ([8]; versus Control group) of the same molecule?
A: 14.6%

Q: And the LD50 at 168 h [9]?
A: 220 ± 15.6 mg/kg

Q: What about the toxicity class (outbred white mice; classified from LD50) of the same molecule?
A: toxicity class 3 (moderately toxic)

Q: And the “LD50 value, times higher than cytosar (cytarabine)” value (outbred white mice; relative to cytosar)?
A: 52 times

Q: What about the “LD50 value, times higher than doxorubicin” value (outbred white mice; relative to doxorubicin) of the same molecule?
A: 20 times

Q: With `C/C=C(/C)C(=O)OC[C@H]1C2=C(C[C@H]3[C@H]4C5=C(C[C@@H]([C@H](C#N)N13)N4C)C(=O)C(C)=C(OC)C5=O)C(=O)C(C)=C(OC)C2=O` [renieramycin M] as the molecule, how does the IC50 (lung cancer H460) read?
A: 40 µM
